Reference: patent publication US12605403B2, “Compositions and methods for treating transient biofilms” (WIAB WATER INNOVATION AB, priority 2016, dated 2026)

Assays:
[1] = test system: Escherichia coli; test: hand disinfection test, transient bacteria on hands of subjects (Handrub procedure PN-EN 1500:2013-07); assay type: in vivo; details: 18 subjects, E. coli on hands, hand rub
Protocol: Tests were performed on the hands of healthy subjects to determine the transient bacteria killing effect of the disclosed compositions. The subjects washed their hands, and dipped their fingertips into Escherichia coli. The disclosed compositions were applied to the subjects' hands by rubbing the disclosed compositions into the skin to stimulate the removal of the transient bacteria on the skin. The same test was performed using prior art alcohol compositions.
Tests were performed on the hands of healthy subjects to determine the transient bacteria killing effect of the disclosed compositions.
In this experiment, 18 subjects washed their hands, and dipped their fingertips into a solution of Escherichia coli. Once the subjects' hands were dry, aliquots of the disclosed composition (5 mL of 160 ppm HOCl, 0.13% Hac) were applied to the subjects' dry hands and rubbed into the skin for 30 to stimulate the removal of the transient bacteria on the skin, according to Handrub procedure PN-EN 1500:2013-07.

[2] = test system: natural bacteria; test: hand and forearm rub test, effect on natural bacteria of the skin (Handrub procedure PN-EN 12791:2005); assay type: in vivo; details: hands of 20 subjects
Protocol: In another experiment aliquots of the disclosed composition (3 mL of 0.03% HOCl, 0.13% Hac) were applied to each of the hands of 20 subjects. […] The composition was rubbed into the hands and forearms for 5 minutes to maintain exposure to the compositions according to Handrub procedure PN-EN 12791:2005.
Bacteria kills of Escherichia coli, Pseudomonas aeruginosa, Staphylococcus areus, and Enterococcus hirae were measured immediately after the application and again 3 hours after application.

Row | Structure (SMILES) | reduction of the presence of the transient bacteria [1] | reduction of the natural bacteria ([2]; 3 hours after application) | reduction of the natural bacteria ([2]; immediately after application)
1 | CC(C)O [2-propanol 60% v/v, 2-propanol] | 4 log |  | 
2 | CCCO [propan-1-ol, 60% v/v, propan-1-ol] |  | 2.16 log | 2.48 log
